pIC50: −log10 of the molar value.
biological target: Proto-oncogene tyrosine-protein kinase Src (Homo sapiens, UniProt P12931)
Sequence (P12931 2-536 limits assumed): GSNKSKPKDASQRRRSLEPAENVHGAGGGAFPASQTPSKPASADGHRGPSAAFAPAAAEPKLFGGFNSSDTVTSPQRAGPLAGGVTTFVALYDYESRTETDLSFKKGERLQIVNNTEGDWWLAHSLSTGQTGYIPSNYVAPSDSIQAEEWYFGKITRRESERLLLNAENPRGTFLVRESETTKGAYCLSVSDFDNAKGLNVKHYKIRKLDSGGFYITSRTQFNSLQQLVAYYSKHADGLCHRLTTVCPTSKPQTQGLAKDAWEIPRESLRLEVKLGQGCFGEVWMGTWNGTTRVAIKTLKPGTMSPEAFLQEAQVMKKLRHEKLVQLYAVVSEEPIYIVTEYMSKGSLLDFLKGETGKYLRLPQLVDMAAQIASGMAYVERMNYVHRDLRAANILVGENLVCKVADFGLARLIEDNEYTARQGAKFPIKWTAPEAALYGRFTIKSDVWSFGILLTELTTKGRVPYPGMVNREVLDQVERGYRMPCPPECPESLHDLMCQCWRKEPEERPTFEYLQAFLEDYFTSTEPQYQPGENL

SMILES | pIC50
CCn1cnc2c(Nc3ccc(C(C)C)cc3)nc(C(C)C)nc21 | 6.41
C=Cn1cnc2c(Nc3ccc(P(C)(C)=O)cc3)nc(N3CCC(CO)CC3)nc21 | 6.81
C=Cn1cnc2c(Nc3ccc(P(C)(C)=O)cc3)ncnc21 | 6.00
C=Cn1cnc2c(Nc3ccc(P(C)(C)=O)cc3)nc(OC3CCOC3)nc21 (centres undefined) | 6.73

Now those with a higher pIC50, led by results:

pIC50 | SMILES
7.37 | Cc1cccc(C)c1/C=C/n1cnc2c(Nc3ccc(P(C)(C)=O)cc3)nc(-c3ccccn3)nc21
7.39 | CCn1cnc2c(Nc3ccc(P(C)(C)=O)cc3)nc(NC3CCOCC3)nc21
7.60 | CCn1cnc2c(Nc3ccc(P(C)(C)=O)cc3)nc(C(C)C)nc21
8.06 | CCCCP(=O)(CCCC)c1ccc(Nc2nc(C(C)C)nc3c2ncn3CC)cc1
8.41 | CCCP(=O)(CCC)c1ccc(Nc2nc(C(C)C)nc3c2ncn3CC)cc1
